According to PMC6168621 (Frontiers in Pharmacology, 2018):
Marks after values point to notes of the source that are not given here.

Assays:
hCB1Rs [1] = biological target: T1, hCB1Rs (Homo sapiens, UniProt P21554); test: biochemical; settings: read-out: EMAX, [^35S]GTPγS binding (maximal G-protein activation)
T1 construct: host or cells: CHO-K1 (CHO-hCB1)

hCB1Rs [2] = biological target: T1, hCB1Rs; assay type: cell-based
hCB1Rs [3] = biological target: T1, hCB1Rs; test: cell-based; assay type: cell-based

T1 sequence (P21554 whole entry): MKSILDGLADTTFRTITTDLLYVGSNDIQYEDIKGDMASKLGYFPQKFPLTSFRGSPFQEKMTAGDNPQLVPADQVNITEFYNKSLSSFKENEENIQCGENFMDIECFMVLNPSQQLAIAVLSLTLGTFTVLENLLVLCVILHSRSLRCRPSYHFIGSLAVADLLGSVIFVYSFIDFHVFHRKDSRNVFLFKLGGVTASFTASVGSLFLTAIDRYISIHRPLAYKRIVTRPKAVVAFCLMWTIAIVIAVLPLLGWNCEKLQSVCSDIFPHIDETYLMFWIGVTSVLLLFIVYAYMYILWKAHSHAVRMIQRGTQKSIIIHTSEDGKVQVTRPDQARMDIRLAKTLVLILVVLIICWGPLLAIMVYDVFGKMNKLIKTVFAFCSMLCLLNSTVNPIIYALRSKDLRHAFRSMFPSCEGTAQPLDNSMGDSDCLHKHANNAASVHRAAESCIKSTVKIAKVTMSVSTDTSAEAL

Structure (SMILES): CCCCCCC(C)(C)c1ccc([C@@H]2C[C@H](O)CC[C@H]2CCCO)c(O)c1 [CP-55,940, reference compound]
- Emax (hCB1Rs [1]): 64 ± 3.8%
- Efficacy (Imax) of CP-55,940 to inhibit adenylyl cyclase (hCB1Rs [2]): 86.7 ± 6.4%
- IMAX, cAMP accumulation (maximal adenylyl cyclase inhibition) (hCB1Rs [3]): 86.7 ± 6.4^a %
